From patent US20250195510A1, “NOVEL METHODS” (priority 2022, published 2025)

Experiments:
[1] = system: inflammatory biomarkers in PBMCs; test: Post-hoc analysis of inflammatory biomarkers in PBMCs, phase 3 trial, schizophrenia with co-morbid depression; assay type: in vivo, human; settings: Day 28, 60 mg lumateperone tosylate once daily
Method: A randomized, double-blind, placebo-controlled, phase 3 clinical trial was conducted with 450 patients with schizophrenia, aged 18 to 60 years, who were experiencing an acute exacerbation of psychosis. Patients were included if they were experiencing an acute exacerbation of psychosis, defined as a total score on the Brief Psychiatric Rating Scale of […] or higher, with a score of 4 or higher on 2 or more positive symptoms, and onset of the acute episode within 4 weeks of screening. Patients were required to have a score of 4 or higher, indicating moderate to severe disease severity, on the Clinical Global Impression-Severity of Illness (CGI-S) at screening and baseline. Severity of illness was confirmed at baseline by a Positive and Negative Syndrome Scale (PANSS) total score of 70 or higher, indicating moderate to extreme symptoms of schizophrenia. A subgroup of these patients experienced co-morbid depression symptoms at baseline (defined as having a Calgary Depression Scale for Schizophrenia (CDSS) score greater than 6 at baseline). Full details of the clinical study were reported in Correll et al., JAMA Psychiatry, 77 (4): 349-358 (2020).
Patients were randomized 1:1:1 (150 patients in each arm) to receive, once daily for 28 days, cither 60 mg lumatepcrone tosylate (42 mg free base), 40 mg lumatepcrone tosylate (28 mg free base), or placebo.
Using blood samples stored from the study, a post-hoc analysis of inflammatory biomarkers in PBMCs from the patients with schizophrenia and co-morbid depression is conducted. […] Day 0 samples are available for 20 patients, while day 28 samples are available only for 18 patients. Mean baseline CDSS is 10.0, and mean baseline PANSS total score is 88.7 in the selected patients.
Samples were processed to isolate PBMC according to standard procedures using the Ficoll-Paque method. Statistical analysis was performed using the paired t-test, two-tailed. Samples were tested for C-reactive protein (CRP), serum amyloid A (SAA), soluble ICAM-1, soluble VCAM-1, IL-1β, TNF-α, IL-6, IL-10, IL-2, IL-8, IL-13, and IFN-γ. ICAM-1 and VCAM-1 are expressed by the vascular endothelium, macrophages, and lymphocytes. Upon cytokine stimulation, their concentrations greatly increase. ICAM-1 can be induced by IL-1ß and TNF. ICAM and VCAM proteins may also be involved in pathogen transit into CNS.
The results are shown in the table below (biomarker levels expressed in ng/ml; some values of N are less than the patient totals due to samples with levels of biomarker below the minimum for quantification): […]

[2] = system: Sprague-Dawley rats; test: Novelty Induced Hypophagia (NIH); assay type: in vivo, rat; settings: naïve rats, Luma 1 mg/kg IP days 1 and 3; control 65.4
Method: Behavioral Evaluation. All behavioral tests are performed in the morning with adult male Sprague-Dawley rats (n=9-11 per group for the experiments with LPS, and n=13-14 per group for the naïve rats).
Novelty Induced Hypophagia (NIH). This conflict-based behavioral task assesses the impact of environmental stressors on conditioned approach response for a palatable food reward (Ramaker and Dulawa, 2017). Rats are habituated with diluted (1:3 milk/water) sweetened condensed milk which is accessible in their home cage for 1 hour each day for 3 consecutive days. Initially, animals are tested in their home cage under normal lighting. For testing after drug treatment, the latency to drink is recorded after rats are placed in a novel clean cage of the same dimensions with no bedding and under dim lighting (˜50 lux) with white paper under the cages to enhance aversion.
Basal levels of anxiety are also tested using 2 commonly used tests, NSFT and novelty induced hypophagia (NIH), in the absence of LPS. It is well documented that rodents experience increased stress levels when placed in a novel environment (Ramaker and Dulawa, 2017). These two tests exploit this feature by measuring latency to feed in food-deprived rats (NSFT), or latency to receive a reward to which they have been habituated prior to the test (NIH).

[3] = system: patients with schizophrenia; test: Phase 3 clinical trial in schizophrenia with acute exacerbation of psychosis; assay type: in vivo, human; settings: 60 mg or 40 mg lumateperone tosylate once daily for 28 days vs placebo
Method: A randomized, double-blind, placebo-controlled, phase 3 clinical trial was conducted with 450 patients with schizophrenia, aged 18 to 60 years, who were experiencing an acute exacerbation of psychosis. Patients were included if they were experiencing an acute exacerbation of psychosis, defined as a total score on the Brief Psychiatric Rating Scale of […] or higher, with a score of 4 or higher on 2 or more positive symptoms, and onset of the acute episode within 4 weeks of screening. Patients were required to have a score of 4 or higher, indicating moderate to severe disease severity, on the Clinical Global Impression-Severity of Illness (CGI-S) at screening and baseline. […]
The primary efficacy end point was mean change from baseline to day 28 in the Positive and Negative Syndrome Scale (PANSS) total score versus placebo. […] The PANSS subscale scores, social function, safety, and tolerability were also assessed. Primary and key secondary efficacy measures were assessed weekly. Safety was assessed by treatment-emergent adverse events (TEAEs), modified physical examinations, 12-lead electrocardiograms (ECGs), vital signs, and clinical laboratory tests (blood and urine samples for clinical laboratory analysis were collected from all subjects upon screening and on Days 1, 8, 28, and 33, following overnight fast).

[4] = system: Corticosterone; test: Serum corticosterone (ELISA) after acute restraint stress; assay type: in vivo, mouse; settings: restraint stress 2 h + Luma 3 mg/kg IP; control 22.65, stressed 238.5
Method: (§1) Restraint Stress Protocol.
Using similar procedures as described above, serum corticosterone levels and hippocampal Cldn5 mRNA expression are measured as well (corticosterone is measured using a commercial ELISA kit).

[5] = system: Serum cytokine concentration; test: Serum cytokine protein (Multiplex MSD) after acute restraint stress; assay type: in vivo, mouse; settings: restraint stress 2 h + Luma 3 mg/kg IP
Method: Multiplex Assays. In mouse serum, protein levels of IL-1b, IL-6, IL-10 and TNF-alpha are measured using a V-Plex Meso Scale Discovery (MSD) Multiplex spot assay Mouse Neuroinflammation 1 panel (Meso Scale Diagnostics, Rockville, MD). All samples are run in duplicates or triplicates according to manufacturer instructions and analyzed with MSD Discovery Workbench software (Meso Scale Diagnostics).
as §1
Control mice receive vehicle treatment and are returned to their home cage before sample collection. Protein concentration is measured using the Multiplex MSD assay V-Plex technology, normalized to the control group. Results are expressed in pg/mL.

Compound: CN1CCN2c3c(cccc31)[C@@H]1CN(CCCC(=O)c3ccc(F)cc3)CC[C@@H]12 [Lumateperone, 4-((6bR,10aS)-3-methyl-2,3,6b,9,10,10a-hexahydro-1H-pyrido[3′,4′: 4,5]pyrrolo[1,2,3-de]quinoxaline-8 (7H)-yl)-1-(4-fluorophenyl)-1-butanone]
- IL-10 level in PBMC, Median ([1]; Day 0 0.07): 0.21 ng/mL
- IL-10 level in PBMC, Average ([1]; Day 0 0.09): 2.14 ng/mL
- IL-2 level in PBMC, Median ([1]; Day 0 0.17): 0.25 ng/mL
- IL-2 level in PBMC, Average ([1]; Day 0 0.18): 0.37 ng/mL
- IL-6 level in PBMC, Median ([1]; Day 0 0.18): 0.32 ng/mL
- IL-6 level in PBMC, Average ([1]; Day 0 0.20): 0.55 ng/mL
- TNF-α level in PBMC, Average ([1]; Day 0 0.27): 0.83 ng/mL
- TNF-α level in PBMC, Median ([1]; Day 0 0.27): 0.43 ng/mL
- IFN-γ level in PBMC, Median ([1]; Day 0 1.01): 0.71 ng/mL
- IFN-γ level in PBMC, Average ([1]; Day 0 1.11): 0.86 ng/mL
- IL-13 level in PBMC, Median ([1]; Day 0 1.11): 1.56 ng/mL
- IL-13 level in PBMC, Average ([1]; Day 0 1.31): 2.38 ng/mL
- IL-1β level in PBMC, Median ([1]; Day 0 1.65): 0.74 ng/mL
- IL-1β level in PBMC, Average ([1]; Day 0 1.76): 1.01 ng/mL
- IL-8 level in PBMC, Median ([1]; Day 0 36.3): 44.0 ng/mL
- sVCAM-1 level in PBMC, Median ([1]; Day 0 60.1): 42.0 ng/mL
- CRP level in PBMC, Median ([1]; Day 0 61.3): 38.0 ng/mL
- IL-8 level in PBMC, Average ([1]; Day 0 74.5): 105.3 ng/mL
- CRP level in PBMC, Average ([1]; Day 0 78.8): 50.5 ng/mL
- sVCAM-1 level in PBMC, Average ([1]; Day 0 78.9): 49.1 ng/mL
- sICAM-1 level in PBMC, Median ([1]; Day 0 136.9): 83.6 ng/mL
- sICAM-1 level in PBMC, Average ([1]; Day 0 184.8): 119.6 ng/mL
- SAA level in PBMC, Median ([1]; Day 0 233.6): 147.3 ng/mL
- SAA level in PBMC, Average ([1]; Day 0 286.9): 157.9 ng/mL
- NIH - novel cage latency to drink [2]: 30.5 s
- efficacy on symptoms of schizophrenia (PANSS total score, CGI-S) [3]: effective for improving the symptoms of schizophrenia
- safety and tolerability [3]: favorable safety profile
- Serum concentration Corticosterone [4]: 167.3 ng/mL
- Serum IL-1b concentration ([5]; control 0.7, stressed 1.65): 0.81 pg/mL
- Serum TNF-alpha concentration ([5]; control 6.75, stressed 10.28): 7.67 pg/mL
- Serum IL-10 concentration ([5]; control 17.18, stressed 86.78): 70.03 pg/mL
- Serum IL-6 concentration ([5]; control 141.3, stressed 627.4): 137.7 pg/mL
